Values of other authors in patent US10114931B2, “Pharmaceutical platform technology for the development of natural products” (Sinoveda Canada Inc., priority 2007, dated 2018).
Where two headings read alike, the source gives them in different places.

Legend:
[1] = in vivo
[2] = tested on: osteoblast formation; conditions: compared with genistein
[3] = in vivo; remark: listed apart in the source
[4] = tested on: bone loss in early postmenopausal women; conditions: 54 mg/day, given orally for a year
[5] = Yan et al., 2008

C[C@@H]1O[C@@H](OC[C@H]2O[C@@H](Oc3c(-c4ccc(O)c(O)c4)oc4cc(O)cc(O)c4c3=O)[C@H](O)[C@@H](O)[C@@H]2O)[C@H](O)[C@H](O)[C@H]1O [Rutin]
Detection in the blood stream [1]: not detected

O=c1c(-c2ccc(O)cc2)coc2cc(O)ccc12 [daidzein]
Potency in osteoblast formation in vitro [2]: more potent
Bioavailability [3]: less than 5%

O=c1c(-c2ccc(O)cc2)coc2cc(O)cc(O)c12 [genistein]
Efficacy compared with hormone replacement therapy [4]: as effective as hormone replacement therapy

CCC/C=C1\OC(=O)C2=C1CCC=C2 [z-ligustilide]
Bioavailability [5]: less than 3%
